Assay results published in the supplement of paper PMC13380429.

Key:
Conditions in all cases: 72 h
[1] = test system: HepG2; assay: drug sensitivity score (DSS) for viability; higher = more toxic; extreme values may be limits of the assay
[2] = test system: Calu-3; assay: as above
[3] = test system: Vero E6; assay: as above
[4] = test system: U2OS; assay: as above
[5] = test system: Caco-2; assay: as above
[6] = test system: HepG2; assay: cell viability relative to DMSO; higher = less toxic
[7] = test system: Calu-3; assay: as above
[8] = test system: Vero E6; assay: as above
[9] = test system: U2OS; assay: as above
[10] = test system: Caco-2; assay: as above
[11] = test system: HepG2; assay: relative viability EC50 (midpoint between 100% and the lowest measured viability); higher = less toxic
[12] = test system: Calu-3; assay: as above
[13] = test system: Vero E6; assay: as above
[14] = test system: U2OS; assay: as above
[15] = test system: Caco-2; assay: as above

NCC(CS(=O)(=O)O)c1ccc(Cl)cc1 (stereo not given) [saclofen]
drug sensitivity score [1]: 0 | drug sensitivity score [2]: 0 | drug sensitivity score [3]: 0 | drug sensitivity score [4]: 0 | drug sensitivity score [5]: 0.6 | cell viability ([6]; 1 nM): 107% | cell viability ([6]; 10 nM): 107% | cell viability ([6]; 100 nM): 105% | cell viability ([6]; 1000 nM): 105% | cell viability ([6]; 10000 nM): 98% | cell viability ([7]; 1 nM): 96.2% | cell viability ([7]; 10 nM): 91.9% | cell viability ([7]; 100 nM): 94.8% | cell viability ([7]; 1000 nM): 86.9% | cell viability ([7]; 10000 nM): 105% | cell viability ([8]; 1 nM): 106% | cell viability ([8]; 10 nM): 98.6% | cell viability ([8]; 100 nM): 103% | cell viability ([8]; 1000 nM): 101% | cell viability ([8]; 10000 nM): 103% | cell viability ([9]; 1 nM): 93.6% | cell viability ([9]; 10 nM): 99.7% | cell viability ([9]; 100 nM): 95.3% | cell viability ([9]; 1000 nM): 96.9% | cell viability ([9]; 10000 nM): 104% | cell viability ([10]; 1 nM): 100% | cell viability ([10]; 10 nM): 101% | cell viability ([10]; 100 nM): 91% | cell viability ([10]; 1000 nM): 88.7% | cell viability ([10]; 10000 nM): 95.5% | relative viability EC50 [11]: > 10 µM | relative viability EC50 [12]: > 10 µM | relative viability EC50 [13]: > 10 µM | relative viability EC50 [14]: > 10 µM | relative viability EC50 [15]: > 10 µM

COC(=O)[C@@H]1C[C@H](OC(C)=O)C(=O)[C@H]2[C@@]1(C)CC[C@H]1C(=O)O[C@H](c3ccoc3)C[C@]21C [salvinorin-A]
drug sensitivity score [1]: 0 | drug sensitivity score [2]: 0 | drug sensitivity score [3]: 0 | drug sensitivity score [4]: 0 | drug sensitivity score [5]: 0 | cell viability ([6]; 1 nM): 88.2% | cell viability ([6]; 10 nM): 106% | cell viability ([6]; 100 nM): 105% | cell viability ([6]; 1000 nM): 98.2% | cell viability ([6]; 10000 nM): 101% | cell viability ([7]; 1 nM): 110% | cell viability ([7]; 10 nM): 91.3% | cell viability ([7]; 100 nM): 97.5% | cell viability ([7]; 1000 nM): 107% | cell viability ([7]; 10000 nM): 109% | cell viability ([8]; 1 nM): 98.5% | cell viability ([8]; 10 nM): 108% | cell viability ([8]; 100 nM): 106% | cell viability ([8]; 1000 nM): 91.8% | cell viability ([8]; 10000 nM): 98.4% | cell viability ([9]; 1 nM): 97.9% | cell viability ([9]; 10 nM): 101% | cell viability ([9]; 100 nM): 93.1% | cell viability ([9]; 1000 nM): 97% | cell viability ([9]; 10000 nM): 97.3% | cell viability ([10]; 1 nM): 112% | cell viability ([10]; 10 nM): 112% | cell viability ([10]; 100 nM): 101% | cell viability ([10]; 1000 nM): 101% | cell viability ([10]; 10000 nM): 97.2% | relative viability EC50 [11]: > 10 µM | relative viability EC50 [12]: > 10 µM | relative viability EC50 [13]: > 10 µM | relative viability EC50 [14]: > 10 µM | relative viability EC50 [15]: > 10 µM

C[n+]1cc2c3c(ccc2c2ccc4cc5c(cc4c21)OCO5)OCO3 [sanguinarium-chloride]
drug sensitivity score [1]: 10.3 | drug sensitivity score [2]: 6.9 | drug sensitivity score [3]: 9.2 | drug sensitivity score [4]: 6.8 | drug sensitivity score [5]: 8.3 | cell viability ([6]; 1 nM): 93% | cell viability ([6]; 10 nM): 103% | cell viability ([6]; 100 nM): 96.7% | cell viability ([6]; 1000 nM): 64.3% | cell viability ([6]; 10000 nM): 0% | cell viability ([7]; 1 nM): 101% | cell viability ([7]; 10 nM): 96.4% | cell viability ([7]; 100 nM): 83.9% | cell viability ([7]; 1000 nM): 91.1% | cell viability ([7]; 10000 nM): 0.9% | cell viability ([8]; 1 nM): 109% | cell viability ([8]; 10 nM): 99.8% | cell viability ([8]; 100 nM): 105% | cell viability ([8]; 1000 nM): 75.9% | cell viability ([8]; 10000 nM): 0.1% | cell viability ([9]; 1 nM): 96.6% | cell viability ([9]; 10 nM): 98.5% | cell viability ([9]; 100 nM): 97% | cell viability ([9]; 1000 nM): 92.1% | cell viability ([9]; 10000 nM): 0.2% | cell viability ([10]; 1 nM): 85.8% | cell viability ([10]; 10 nM): 103% | cell viability ([10]; 100 nM): 73.1% | cell viability ([10]; 1000 nM): 82.4% | cell viability ([10]; 10000 nM): 2.2% | relative viability EC50 [11]: 1.29 µM | relative viability EC50 [12]: 2.42 µM | relative viability EC50 [13]: 1.58 µM | relative viability EC50 [14]: 2.52 µM | relative viability EC50 [15]: 1.82 µM

CCO[C@@H](Cc1ccc(OCCn2c(C)ccc2-c2ccc(SC)cc2)cc1)C(=O)O [saroglitazar]
drug sensitivity score [1]: 0 | drug sensitivity score [2]: 0 | drug sensitivity score [3]: 1.2 | drug sensitivity score [4]: 0 | drug sensitivity score [5]: 0 | cell viability ([6]; 1 nM): 97.3% | cell viability ([6]; 10 nM): 95.5% | cell viability ([6]; 100 nM): 88.4% | cell viability ([6]; 1000 nM): 97.1% | cell viability ([6]; 10000 nM): 104% | cell viability ([7]; 1 nM): 93.3% | cell viability ([7]; 10 nM): 80.3% | cell viability ([7]; 100 nM): 97.6% | cell viability ([7]; 1000 nM): 89.9% | cell viability ([7]; 10000 nM): 105% | cell viability ([8]; 1 nM): 99.5% | cell viability ([8]; 10 nM): 96.3% | cell viability ([8]; 100 nM): 88.1% | cell viability ([8]; 1000 nM): 87.8% | cell viability ([8]; 10000 nM): 95.2% | cell viability ([9]; 1 nM): 102% | cell viability ([9]; 10 nM): 89.1% | cell viability ([9]; 100 nM): 101% | cell viability ([9]; 1000 nM): 97.5% | cell viability ([9]; 10000 nM): 93.9% | cell viability ([10]; 1 nM): 92% | cell viability ([10]; 10 nM): 92.8% | cell viability ([10]; 100 nM): 122% | cell viability ([10]; 1000 nM): 93.7% | cell viability ([10]; 10000 nM): 100% | relative viability EC50 [11]: > 10 µM | relative viability EC50 [12]: > 10 µM | relative viability EC50 [13]: > 10 µM | relative viability EC50 [14]: > 10 µM | relative viability EC50 [15]: > 10 µM

CN1[C@@H]2C[C@@H](O)C[C@H]1[C@@H]1O[C@@H]12 [scopine]
drug sensitivity score [1]: 0 | drug sensitivity score [2]: 0 | drug sensitivity score [3]: 0 | drug sensitivity score [4]: 0 | drug sensitivity score [5]: 0 | cell viability ([6]; 1 nM): 97.2% | cell viability ([6]; 10 nM): 99.7% | cell viability ([6]; 100 nM): 96.7% | cell viability ([6]; 1000 nM): 99.8% | cell viability ([6]; 10000 nM): 97% | cell viability ([7]; 1 nM): 102% | cell viability ([7]; 10 nM): 90.1% | cell viability ([7]; 100 nM): 98.8% | cell viability ([7]; 1000 nM): 103% | cell viability ([7]; 10000 nM): 103% | cell viability ([8]; 1 nM): 104% | cell viability ([8]; 10 nM): 108% | cell viability ([8]; 100 nM): 106% | cell viability ([8]; 1000 nM): 106% | cell viability ([8]; 10000 nM): 98.8% | cell viability ([9]; 1 nM): 98.4% | cell viability ([9]; 10 nM): 93.4% | cell viability ([9]; 100 nM): 96.1% | cell viability ([9]; 1000 nM): 96% | cell viability ([9]; 10000 nM): 102% | cell viability ([10]; 1 nM): 104% | cell viability ([10]; 10 nM): 93% | cell viability ([10]; 100 nM): 96.1% | cell viability ([10]; 1000 nM): 98.3% | cell viability ([10]; 10000 nM): 105% | relative viability EC50 [11]: > 10 µM | relative viability EC50 [12]: > 10 µM | relative viability EC50 [13]: > 10 µM | relative viability EC50 [14]: > 10 µM | relative viability EC50 [15]: > 10 µM

COc1cc(C2Oc3cc([C@H]4Oc5cc(O)cc(O)c5C(=O)[C@@H]4O)ccc3OC2CO)ccc1O (stereo not given in full) [silibinin]
drug sensitivity score [1]: 0 | drug sensitivity score [2]: 0 | drug sensitivity score [3]: 0 | drug sensitivity score [4]: 0 | drug sensitivity score [5]: 0 | cell viability ([6]; 1 nM): 100% | cell viability ([6]; 10 nM): 97.8% | cell viability ([6]; 100 nM): 101% | cell viability ([6]; 1000 nM): 91.1% | cell viability ([6]; 10000 nM): 93.1% | cell viability ([7]; 1 nM): 99.9% | cell viability ([7]; 10 nM): 108% | cell viability ([7]; 100 nM): 92.6% | cell viability ([7]; 1000 nM): 98.6% | cell viability ([7]; 10000 nM): 99.3% | cell viability ([8]; 1 nM): 99.1% | cell viability ([8]; 10 nM): 106% | cell viability ([8]; 100 nM): 101% | cell viability ([8]; 1000 nM): 103% | cell viability ([8]; 10000 nM): 99.2% | cell viability ([9]; 1 nM): 96% | cell viability ([9]; 10 nM): 103% | cell viability ([9]; 100 nM): 95.8% | cell viability ([9]; 1000 nM): 98.9% | cell viability ([9]; 10000 nM): 93.6% | cell viability ([10]; 1 nM): 103% | cell viability ([10]; 10 nM): 102% | cell viability ([10]; 100 nM): 93% | cell viability ([10]; 1000 nM): 104% | cell viability ([10]; 10000 nM): 100% | relative viability EC50 [11]: > 10 µM | relative viability EC50 [12]: > 10 µM | relative viability EC50 [13]: > 10 µM | relative viability EC50 [14]: > 10 µM | relative viability EC50 [15]: > 10 µM

CC(=O)OC[C@H]1O[C@@](COC(C)=O)(O[C@H]2O[C@H](COC(C)=O)[C@@H](OC(C)=O)[C@H](OC(C)=O)[C@H]2OC(C)=O)[C@@H](OC(C)=O)[C@@H]1OC(C)=O [sucrose-octaacetate]
drug sensitivity score [1]: 0 | drug sensitivity score [2]: 0 | drug sensitivity score [3]: 0 | drug sensitivity score [4]: 0 | drug sensitivity score [5]: 0 | cell viability ([6]; 1 nM): 93% | cell viability ([6]; 10 nM): 100% | cell viability ([6]; 100 nM): 102% | cell viability ([6]; 1000 nM): 103% | cell viability ([6]; 10000 nM): 109% | cell viability ([7]; 1 nM): 102% | cell viability ([7]; 10 nM): 96.3% | cell viability ([7]; 100 nM): 99% | cell viability ([7]; 1000 nM): 103% | cell viability ([7]; 10000 nM): 108% | cell viability ([8]; 1 nM): 98.5% | cell viability ([8]; 10 nM): 100% | cell viability ([8]; 100 nM): 94.1% | cell viability ([8]; 1000 nM): 94.6% | cell viability ([8]; 10000 nM): 110% | cell viability ([9]; 1 nM): 95.1% | cell viability ([9]; 10 nM): 89.6% | cell viability ([9]; 100 nM): 97.7% | cell viability ([9]; 1000 nM): 102% | cell viability ([9]; 10000 nM): 102% | cell viability ([10]; 1 nM): 102% | cell viability ([10]; 10 nM): 99.6% | cell viability ([10]; 100 nM): 97% | cell viability ([10]; 1000 nM): 93% | cell viability ([10]; 10000 nM): 98.4% | relative viability EC50 [11]: > 10 µM | relative viability EC50 [12]: > 10 µM | relative viability EC50 [13]: > 10 µM | relative viability EC50 [14]: > 10 µM | relative viability EC50 [15]: > 10 µM
